Tested on: T1, TvL
T1 construct: gene LCC2
Settings: read-out: KMapp / Free; free enzyme; assay as for activity: 50 mM citric/phosphate buffer pH 4, 420 nm; unit not in table grid, µM
Description: ABTS oxidation kinetics, non-linear Michaelis-Menten fit on TvL

Km: 42.1 ± 3.14 µM
Compound: CCn1c(=NN=c2sc3cc(S(=O)(=O)O)ccc3n2CC)sc2cc(S(=O)(=O)O)ccc21 [ABTS, 2,2′-azino-bis(3-ethylbenzthiazoline-6-sulphonic acid)]

Source: article PMC10222279, “Detection of Acetaminophen in Groundwater by Laccase-Based Amperometric Biosensors Using MoS2 Modified Carbon Paper Electrodes” (Sensors (Basel, Switzerland), 2023)
